Series [1] concerns NF-κB. Put plainly: Measurement of NF-κB activation using THP1-Blue NF-κB cells (SEAP). Format: cell-based. Particulars: for activity at 5 µM: 20 h, two point normalized, compound 1 as 200%; for NF-κB activity (SAR discussion, in words): evaluated in both the presence and absence of LPS.
For series [2], the system named is THP-1 cells. Kind of series: Cell viability assay (MTT). Conditions: compound 5 μM alone, 18 h, normalized to DMSO as 100%. The class given is cell-based. The method, then: THP-1 cells were plated in 96-well plates (10^5 cells/well) in 100 μL RPMI supplemented with 10% FBS, 100 U/mL penicillin and 100 μg/ml streptomycin. Compounds were dissolved in DMSO at 1 mM stock solution and were further diluted to 10 μM in the assay medium. 100 μL of this solution was added to the cells to obtain a final compound concentration of 5 μM ([…]). After 18 h incubation, a solution of MTT in assay media (0.5 mg/mL) was added to each well and further incubated for 4 to 6 h, followed by addition of cell lysis buffer (15% w/v SDS and 0.12% v/v 12N HCl aqueous solution), incubated overnight, and then absorbance measured at 570 nm using 650 nm as reference using Tecan Infinite M200 plate reader.

In series [3] the test system is NF-κB. Put plainly: cell-based NF-κB FRET assay. Particulars: compound + LPS; two point normalized, compound 1 as 200%, LPS (10 ng/mL) as 100%. The source says: Site A was assigned the 4-substituent of thiazole ring, site B was the thiazole ring itself, site C was the central amide bond in the structure, site D was the benzene ring bearing 1,4-carboxyl and sulfamoyl group, site E was the sulfonamide functional group and site F was the amide substituent on the sulfamoyl group.

The mark [4] stands for this setting: compound 5 μM + LPS, LPS (10 ng/mL) as 100%, read-out: NF-κB SEAP Compound + LPS % Activation.
Where [5] appears, read: compound 5 μM alone, LPS or DMSO as 100%, read-out: NF-κB SEAP Compound alone % Activation.

“Also recorded” adds a separate entry of the source. Where two headings read alike, the source gives them in different places.

In the case of `Cc1ccc(C)c(-c2ccc(NC(=O)c3ccc(S(=O)(=O)N4CCCCC4)cc3)nc2)c1` [Compound 18c, N-(5-(2,5-dimethylphenyl)pyridin-2-yl)-4-(piperidin-1-ylsulfonyl)benzamide], the activity at 5 µM is 97.9% in series [1] (setting [4]) and 98.3% in series [1] (setting [5]). Further, the “NF-κB activity (SAR discussion, in words)” value in series [1] is on record as “none of these molecules that replaced the thiazole functionality were active”. Also, the “MTT Compound alone % Viability” value in series [2] was found to be 92.06%. Also, the “NF-κB FRET Compound + LPS % Activation” value in series [3] worked out at 73.65%.

For `CCc1csc(NC(=O)c2ccc(S(=O)(=O)N3CCCCC3)cc2)n1` [Compound 12h, N-(4-ethylthiazol-2-yl)-4-(piperidin-1-ylsulfonyl)benzamide], the figures for the activity at 5 µM in series [1] (setting [4]) and in series [1] (setting [5]) were 94% and 98.7%, respectively. The “NF-κB activity (SAR discussion, in words)” value in series [1] is “None of these molecules had any NF-κB activity”. Also, the “MTT Compound alone % Viability” value in series [2] is reported as 122.75%. In addition, the “NF-κB FRET Compound + LPS % Activation” value in series [3] was 108.38%.

On to `Cc1ccc(N=[N+]=[N-])cc1-c1csc(NC(=O)c2ccc(S(=O)(=O)N3CCCCC3)cc2)n1` [Compound 67, N-(4-(5-azido-2-methylphenyl)thiazol-2-yl)-4-(piperidin-1-ylsulfonyl)benzamide], for which the results for the activity at 5 µM in series [1] (setting [4]) and in series [1] (setting [5]) were 159% and 177%, respectively. In addition, the “NF-κB activity (SAR discussion, in words)” value in series [1] was “retained activity”. For the same compound, the “MTT Compound alone % Viability” value in series [2] is on record as 90.50%. In series [3], the “NF-κB FRET Compound + LPS % Activation” value was determined as 168.96%.

As for `Cc1ccc(N=[N+]=[N-])c(-c2csc(NC(=O)c3ccc(S(=O)(=O)N4CCCCC4)cc3)n2)c1` [Compound 70, N-(4-(2-azido-5-methylphenyl)thiazol-2-yl)-4-(piperidin-1-ylsulfonyl)benzamide], the activity at 5 µM in series [1] (setting [4]) was determined as 97.3%; in series [1] (setting [5]) it was 101%. In addition, in series [1], the “NF-κB activity (SAR discussion, in words)” value is “inactive”. Also, the “MTT Compound alone % Viability” value in series [2] is given as 77.84%. The “NF-κB FRET Compound + LPS % Activation” value in series [3] was 70.93%.

Take `Cc1ccc(C)c(-c2csc(NC(=O)c3ccc(S(=O)(=O)N4CCCCC4)nc3)n2)c1` [Compound 46b, N-(4-(2,5-dimethylphenyl)thiazol-2-yl)-6-(piperidin-1-ylsulfonyl)nicotinamide]: the values for the activity at 5 µM in series [1] (setting [4]) and in series [1] (setting [5]) were 115% and 100%, respectively. The “NF-κB activity (SAR discussion, in words)” value in series [1] was “none of these modifications at site D or E were tolerated”. Also, the “MTT Compound alone % Viability” value in series [2] came to 88.57%. The “NF-κB FRET Compound + LPS % Activation” value in series [3] is recorded as 146.35%.

Regarding `CCCC#Cc1sc(NC(=O)c2ccc(S(=O)(=O)N3CCCCC3)cc2)nc1-c1cc(C)ccc1C` [Compound 18q, N-(4-(2,5-dimethylphenyl)-5-(pent-1-yn-1-yl)thiazol-2-yl)-4-(piperidin-1-ylsulfonyl)benzamide], the activity at 5 µM in series [1] (setting [4]) was found to be 242%; in series [1] (setting [5]) it was 393%. Besides, the “NF-κB activity when tested alone (in words)” value in series [1] (compound alone, without LPS) is on record as “very potent”. Also, in series [1], the “NF-κB activity (SAR discussion, in words)” value is “most potent”. In addition, the “MTT Compound alone % Viability” value in series [2] was 105.84%. Moreover, in series [3], the “NF-κB FRET Compound + LPS % Activation” value worked out at 215.78%.

`CCN(CC)c1sc(NC(=O)c2ccc(S(=O)(=O)N3CCCCC3)cc2)nc1-c1cc(C)ccc1C` [Compound 18g, N-(5-(diethylamino)-4-(2,5-dimethylphenyl)thiazol-2-yl)-4-(piperidin-1-ylsulfonyl)benzamide]: the activity at 5 µM in series [1] (setting [4]) turned out to be 98.1%; in series [1] (setting [5]) it was 98%. Also, the “NF-κB activity (SAR discussion, in words)” value in series [1] was “completely inactive”. In addition, the “MTT Compound alone % Viability” value in series [2] came to 94.30%. The “NF-κB FRET Compound + LPS % Activation” value in series [3] is 92.64%.

Turning to `CCCN(CCC)S(=O)(=O)c1ccc(C(=O)Nc2nc(-c3cc(C)ccc3C)cs2)cc1` [Compound 58b, N-(4-(2,5-dimethylphenyl)thiazol-2-yl)-4-(N,N-dipropylsulfamoyl)benzamide], the figures for the activity at 5 µM in series [1] (setting [4]) and in series [1] (setting [5]) were 260% and 243%, respectively. In series [1], the “NF-κB activity (SAR discussion, in words)” value is recorded as “tolerated; also recorded: active”. Moreover, the “MTT Compound alone % Viability” value in series [2] was determined as 83.69%. Besides, the “NF-κB FRET Compound + LPS % Activation” value in series [3] is 190.52%.

Take `C#CCNS(=O)(=O)c1ccc(C(=O)Nc2nc(-c3cc(C)ccc3C)cs2)cc1` [Compound 72a, N-(4-(2,5-dimethylphenyl)thiazol-2-yl)-4-(N-(prop-2-yn-1-yl)sulfamoyl)benzamide]: the activity at 5 µM in series [1] (setting [4]) is 102%; in series [1] (setting [5]), 99.2%. In addition, the “NF-κB activity (SAR discussion, in words)” value in series [1] is “lost their activity”. In series [2], the “MTT Compound alone % Viability” value is on record as 87.46%. Besides, the “NF-κB FRET Compound + LPS % Activation” value in series [3] was 121.36%.

Take `Cc1ccc(C)c(-c2csc(NC(=O)c3cccc(C(=O)N4CCCCC4)c3)n2)c1` [Compound 49d, N-(4-(2,5-dimethylphenyl)thiazol-2-yl)-3-(piperidine-1-carbonyl)benzamide]: the activity at 5 µM came out at 112% in series [1] (setting [4]) and 99.6% in series [1] (setting [5]). For the same compound, in series [1], the “NF-κB activity (SAR discussion, in words)” value is “none of these modifications at site D or E were tolerated”. Further, the “MTT Compound alone % Viability” value in series [2] is reported as 88.06%. In series [3], the “NF-κB FRET Compound + LPS % Activation” value stood at 136.46%.

Take `Cc1ccc(-c2csc(NC(=O)c3ccc(S(=O)(=O)N4CCCCC4)cc3)n2)cc1C` [Compound 12n, N-(4-(3,4-dimethylphenyl)thiazol-2-yl)-4-(piperidin-1-ylsulfonyl)benzamide]: the activity at 5 µM came to 98% in series [1] (setting [4]) and 98.7% in series [1] (setting [5]). The “NF-κB activity (SAR discussion, in words)” value in series [1] is “inactive”. The “MTT Compound alone % Viability” value in series [2] is listed as 97.59%. For the same compound, the “NF-κB FRET Compound + LPS % Activation” value in series [3] is reported as 128.01%.

Turning to `Cc1ccc2c(c1)-c1nc(NC(=O)c3ccc(S(=O)(=O)N4CCCCC4)cc3)sc1CC2` [Compound 12s, N-(8-methyl-4,5-dihydronaphtho[1,2-d]thiazol-2-yl)-4-(piperidin-1-ylsulfonyl)benzamide], the values for the activity at 5 µM in series [1] (setting [4]) and in series [1] (setting [5]) were 141% and 128%, respectively. Besides, the “NF-κB activity (SAR discussion, in words)” value in series [1] was “weakly active”. For the same compound, the “MTT Compound alone % Viability” value in series [2] is on record as 102.16%. Besides, in series [3], the “NF-κB FRET Compound + LPS % Activation” value turned out to be 159.62%.

As to `CCCC1CCN(S(=O)(=O)c2ccc(C(=O)Nc3nc(-c4cc(C)ccc4Br)cs3)cc2)CC1` [Compound 59, N-(4-(2-bromo-5-methylphenyl)thiazol-2-yl)-4-((4-propylpiperidin-1-yl)sulfonyl)benzamide], the values for the activity at 5 µM in series [1] (setting [4]) and in series [1] (setting [5]) were 298% and 484%, respectively. Moreover, the “NF-κB activity (SAR discussion, in words)” value in series [1] was “very potent and showed better potency than compound 1”. In addition, in series [2], the “MTT Compound alone % Viability” value was determined as 98.59%. The “NF-κB FRET Compound + LPS % Activation” value in series [3] was 211.88%.

Take `Cc1ccc(C)c(-c2csc(NC(=O)c3ccc(S(=O)(=O)NC4CCCCC4)cc3)n2)c1` [Compound 58e, 4-(N-cyclohexylsulfamoyl)-N-(4-(2,5-dimethylphenyl)thiazol-2-yl)benzamide]: the activity at 5 µM in series [1] (setting [4]) came to 94.5%; in series [1] (setting [5]), 98.3%. The “NF-κB activity (SAR discussion, in words)” value in series [1] was “inactive”. The “MTT Compound alone % Viability” value in series [2] is 93.65%. Further, the “NF-κB FRET Compound + LPS % Activation” value in series [3] is given as 52.23%.

For `Cc1ccc(C)c(-c2csc(NS(=O)(=O)c3ccc(C(=O)N4CCCCC4)cc3)n2)c1` [Compound 55, N-(4-(2,5-dimethylphenyl)thiazol-2-yl)-4-(piperidine-1-carbonyl)benzenesulfonamide], the activity at 5 µM in series [1] (setting [4]) is 91.7%; in series [1] (setting [5]), 103%. Moreover, the “NF-κB activity (SAR discussion, in words)” value in series [1] is “inactive”. In addition, the “MTT Compound alone % Viability” value in series [2] stood at 58.91%. Also, the “NF-κB FRET Compound + LPS % Activation” value in series [3] stood at 70.37%.

Turning to `Cc1ccc(C)c(-c2csc(C(=O)Nc3ccc(S(=O)(=O)N4CCCCC4)cc3)n2)c1` [Compound 34b, 4-(2,5-dimethylphenyl)-N-(4-(piperidin-1-ylsulfonyl)phenyl)thiazole-2-carboxamide], the activity at 5 µM in series [1] (setting [4]) was 104%; in series [1] (setting [5]), 98.8%. In addition, the “NF-κB activity (SAR discussion, in words)” value in series [1] is “weak activity”. For the same compound, the “MTT Compound alone % Viability” value in series [2] is reported as 91.08%. Moreover, the “NF-κB FRET Compound + LPS % Activation” value in series [3] is 134.57%.

Regarding `CCCCN(CCCC)S(=O)(=O)c1ccc(C(=O)Nc2nc(-c3cc(C)ccc3C)cs2)cc1` [Compound 58c, 4-(N,N-dibutylsulfamoyl)-N-(4-(2,5-dimethylphenyl)thiazol-2-yl)benzamide], the activity at 5 µM in series [1] (setting [4]) came out at 105%; in series [1] (setting [5]), 103%. The “NF-κB activity (SAR discussion, in words)” value in series [1] is “lost activity”. Moreover, the “MTT Compound alone % Viability” value in series [2] came to 86.41%. In series [3], the “NF-κB FRET Compound + LPS % Activation” value is 104.47%.
